US20070270475A1, “4-Methoxy-Pyrrolidine-2-Carboxylic Acid Compounds and Derivatives Thereof as Hepatitis C Virus Inhibitors” (priority 2004, published 2007)

The compounds below were run against T1, HCV RNA Polymerase, recombinant full-length NS5B, genotype 1b (Hepatitis C virus genotype 1b, UniProt Q9WMX2) (assay: In vitro HCV RNA-dependent RNA polymerase inhibition assay, genotype 1b full-length enzyme). Conditions: genotype 1b full-length NS5B, 4 nM enzyme.
T1 construct: Recombinant full-length NS5B; made in house; host or cells: baculovirus (insect cells)
T1 sequence (Q9WMX2 2420-3010): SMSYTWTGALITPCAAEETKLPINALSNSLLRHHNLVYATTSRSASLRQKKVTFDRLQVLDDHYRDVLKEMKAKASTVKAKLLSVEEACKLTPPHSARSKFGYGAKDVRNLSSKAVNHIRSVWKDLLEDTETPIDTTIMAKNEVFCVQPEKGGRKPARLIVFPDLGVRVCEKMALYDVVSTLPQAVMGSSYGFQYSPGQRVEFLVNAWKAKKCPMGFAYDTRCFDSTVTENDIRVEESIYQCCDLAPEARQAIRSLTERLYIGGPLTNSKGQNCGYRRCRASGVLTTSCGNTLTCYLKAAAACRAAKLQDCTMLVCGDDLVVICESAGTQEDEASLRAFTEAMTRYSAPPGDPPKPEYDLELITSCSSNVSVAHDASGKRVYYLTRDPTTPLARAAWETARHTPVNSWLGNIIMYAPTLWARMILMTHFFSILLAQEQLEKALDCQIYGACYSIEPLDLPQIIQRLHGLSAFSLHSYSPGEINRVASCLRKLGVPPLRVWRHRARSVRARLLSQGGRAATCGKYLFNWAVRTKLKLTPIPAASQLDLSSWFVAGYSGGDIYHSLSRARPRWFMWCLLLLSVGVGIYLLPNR
Assay type: biochemical, HCV genotype 1b
Protocol: In Vitro Detection of inhibitors of HCV RNA-Dependent RNA Polymerase Activity
Incorporation of [^33P]-GMP into RNA was followed by absorption of the biotin labelled RNA polymer by streptavidin containing SPA beads. A synthetic template consisting of biotinylated 13mer-oligoG hybridised to polyrC was used as a homopolymer substrate.
b) Genotype 1b Full-Length Enzyme
Reaction Conditions were 0.5 μM [^33P]-GTP (20 Ci/mMol), 1 mM Dithiothreitol, 20 mM MgCl2, 5 mM MnCl2, 20 mM Tris-HCl, pH7.5, 1.6 μg/mL polyC/0.256 μM biotinylated oligoG13, 10% glycerol, 0.01% NP-40, 0.2 u/μL RNasin and 50 mM NaCl.
HCV RNA Polymerase (Recombinant full-length NS5B (Lohmann et al, J. Virol. 71 (11), 1997, 8416. ‘Biochemical properties of hepatitis C virus NS5B RNA-dependent RNA polymerase and identification of amino acid sequence motifs essential for enzymatic activity’) expressed in baculovirus and purified to homogeneity) was added to 4 nM final concentration.
5× concentrated assay buffer mix was prepared using 1M MnCl2 (0.25 mL), glycerol (2.5 mL), 10% NP-40 (0.025 mL) and Water (7.225 mL), Total 10 mL.
2× concentrated enzyme buffer contained 1M-Tris-HCl, pH7.5 (0.4 mL), 5M NaCl (0.2 mL), 1M-MgCl2(0.4 mL), glycerol (1 mL), 10% NP-40 (10 μL), 1M DTT (20 μL) and water (7.97 mL), Total 10 mL.
Substrate Mix was prepared using 5x Concentrated assay Buffer mix (4 μL), [^33P]-GTP (10 μCi/μL, 0.02 μL), 25 μM GTP (0.4 μL), 40 μ/μL RNasin (0.1 μL), 20 μg/mL polyrC/biotinylated-oligorG (1.6 μL), and Water (3.94 μL), Total 10 μL.
Enzyme Mix was prepared by adding 1 mg/ml full-length NS5B polymerase (1.5 μL) to 2.81 mL 2×-concentrated enzyme buffer.
The Assay was set up using compound (1μL), Substrate Mix (10 μL), and Enzyme Mix (added last to start reaction) (10 μL), Total 21 μL.
The reaction was performed in a U-bottomed, white, 96-well plate. The reaction was mixed on a plate-shaker, after addition of the Enzyme, and incubated for 1 h at 22° C. After this time, the reaction was stopped by addition of 40 μL 1.875 mg/ml streptavidin SPA beads in 0.1 M EDTA. The beads were incubated with the reaction mixture for 1 h at 22° C. after which 120 μL 0.1 M EDTA in PBS was added. The plate was sealed, mixed centrifuged and incorporated radioactivity determined by counting in a Trilux (Wallac) or Topcount (Packard) Scintillation Counter.
After subtraction of background levels without enzyme, any reduction in the amount of radioactivity incorporated in the presence of a compound, compared to that in the absence, was taken as a measure of the level of inhibition. Ten concentrations of compounds were tested in three- or fivefold dilutions. From the counts, percentage of inhibition at highest concentration tested or IC50s for the compounds were calculated using GraFit 3, GraFit 4 or GraFit 5 (Erithacus Software Ltd.) software packages or a data evaluation macro for Excel based on XLFit software (IDBS).

Compared with `COC[C@H]1C[C@@](Cc2ccccc2)(C(=O)O)N(C(=O)c2ccc(C(C)(C)C)c(OC)c2)[C@H]1c1nccs1` (racemic) [Compound E, rel-(2R,4S,5R)-2-benzyl-1-(3-methoxy-4-tert-butylbenzoyl)-4-methoxymethyl-5-(1,3-thiazol-2-yl)-pyrrolidine-2-carboxylic acid, reference compound], `COC[C@H]1C[C@@](Cc2ccsn2)(C(=O)O)N(C(=O)c2ccc(C(C)(C)C)c(OC)c2)[C@H]1c1nccs1` (single isomer, unassigned; enantiomer a) [Example 5] is lower in IC50: 0.2 to 0.5 µM for the first, under 0.2 µM for the second. The second is the more potent here.

`COC[C@H]1C[C@@](Cn2cccn2)(C(=O)O)N(C(=O)c2ccc(C(C)(C)C)c(OC)c2)[C@H]1c1nccs1` (racemic) [Example 6, rel-(2R,4S,5R)-1-(3-Methoxy-4-tert-butylbenzoyl)-4-(methoxymethyl)-2-(1H-pyrazol-1-ylmethyl)-5-(1,3-thiazol-2-yl)pyrrolidine-2-carboxylic acid] and `COC[C@H]1C[C@@](Cn2cccn2)(C(=O)O)N(C(=O)c2ccc(C(C)(C)C)c(OC)c2)[C@H]1c1ncc(C)s1` (racemic) [Example 10, rel-(2R,4S,5R)-1-(3-Methoxy-4-tert-butylbenzoyl)-4-(methoxymethyl)-5-(5-methyl-1,3-thiazol-2-yl)-2-(1H-pyrazol-1-ylmethyl)pyrrolidine-2-carboxylic acid] cannot be ordered by IC50: under 0.2 µM for the first, under 0.2 µM for the second.

`COC[C@H]1C[C@@](Cc2cscn2)(C(=O)O)N(C(=O)c2ccc(C(C)(C)C)c(OC)c2)[C@H]1c1ncc(C)s1` (racemic) [Example 1, rel-(2R,4S,5R)-1-(3-Methoxy-4-tert-butylbenzoyl)-4-(methoxymethyl)-5-(5-methyl-1,3-thiazol-2-yl)-2-(1,3-thiazol-4-ylmethyl)pyrrolidine-2-carboxylic acid] and `COC[C@H]1C[C@@](Cc2ccsn2)(C(=O)O)N(C(=O)c2ccc(C(C)(C)C)c(OC)c2)[C@H]1c1ncc(C)s1` (racemic) [Example 9, rel-(2R,4S,5R)-1-(3-Methoxy-4-tert-butylbenzoyl)-4-(methoxymethyl)-5-(5-methyl-1,3-thiazol-2-yl)-2-(1,2-thiazol-3-ylmethyl)pyrrolidine-2-carboxylic acid] cannot be ordered by IC50: under 0.2 µM for the first, under 0.2 µM for the second.

`COC[C@H]1C[C@@](Cc2cscn2)(C(=O)O)N(C(=O)c2ccc(C(C)(C)C)c(OC)c2)[C@H]1c1nccs1` (single isomer, unassigned; enantiomer a) [Example 12] and `COC[C@H]1C[C@@](Cc2ccsn2)(C(=O)O)N(C(=O)c2ccc(C(C)(C)C)c(OC)c2)[C@H]1c1nccs1` (racemic) [Example 4, rel-(2R,4S,5R)-1-(3-Methoxy-4-tert-butylbenzoyl)-4-(methoxymethyl)-5-(1,3-thiazol-2-yl)-2-(1,2-thiazol-3-ylmethyl)pyrrolidine-2-carboxylic acid] cannot be ordered by IC50: under 0.2 µM for the first, under 0.2 µM for the second.

`COC[C@H]1C[C@@](Cn2cccn2)(C(=O)O)N(C(=O)c2ccc(C(C)(C)C)c(OC)c2)[C@H]1c1nccs1` (single isomer, unassigned) [Example 7] and `COC[C@H]1C[C@@](Cn2cccn2)(C(=O)O)N(C(=O)c2ccc(C(C)(C)C)c(OC)c2)[C@H]1c1ncc(C)s1` (single isomer, unassigned; enantiomer a) [Example 11] cannot be ordered by IC50: under 0.2 µM for the first, under 0.2 µM for the second.

`COC[C@H]1C[C@@](CC(C)C)(C(=O)O)N(C(=O)c2ccc(C(C)(C)C)c(OC)c2)[C@H]1c1nccs1` (racemic) [Compound A, rel-(2S,4S,5R)-2-isobutyl-1-(3-methoxy-4-tert-butylbenzoyl)-4-methoxymethyl-5-(1,3-thiazol-2-yl)pyrrolidine-2-carboxylic acid, reference compound] and `COC[C@H]1C[C@@](CC(C)C)(C(=O)O)N(C(=O)c2ccc(C(C)(C)C)c(OC)c2)[C@H]1c1ncc(C)s1` (racemic) [Compound C, rel-(2S,4S,5R)-2-isobutyl-1-(3-methoxy-4-tert-butylbenzoyl)-4-methoxymethyl-5-(5-methyl-1,3-thiazol-2-yl)pyrrolidine-2-carboxylic acid, reference compound] cannot be ordered by IC50: over 0.5 µM for the first, over 0.5 µM for the second.

`COC[C@H]1C[C@@](CC(C)C)(C(=O)O)N(C(=O)c2ccc(C(C)(C)C)c(OC)c2)[C@H]1c1nccs1` [Compound B, (2S,4S,5R)-2-isobutyl-1-(3-methoxy-4-tert-butylbenzoyl)-4-methoxymethyl-5-(1,3-thiazol-2-yl)pyrrolidine-2-carboxylic acid, reference compound] and `COCC1CC(CC(C)C)(C(=O)O)N(C(=O)c2ccc(C(C)(C)C)c(OC)c2)C1c1ncc(C)s1` (single isomer, unassigned; enantiomer a) [Compound D, reference compound] fall in the same range of IC50: 0.2 to 0.5 µM for the first, 0.2 to 0.5 µM for the second.

`COC[C@H]1C[C@@](Cc2cscn2)(C(=O)O)N(C(=O)c2ccc(C(C)(C)C)c(OC)c2)[C@H]1c1ncc(C)s1` (single isomer, unassigned; enantiomer a) [Example 2] and `COC[C@H]1C[C@@](Cc2nccs2)(C(=O)O)N(C(=O)c2ccc(C(C)(C)C)c(OC)c2)[C@H]1c1ncc(C)s1` (racemic) [Example 8, rel-(2R,4S,5R)-1-(3-Methoxy-4-tert-butylbenzoyl)-4-(methoxymethyl)-5-(5-methyl-1,3-thiazol-2-yl)-2-(1,3-thiazol-2-ylmethyl)pyrrolidine-2-carboxylic acid] cannot be ordered by IC50: under 0.2 µM for the first, under 0.2 µM for the second.

`COC[C@H]1C[C@@](Cc2cscn2)(C(=O)O)N(C(=O)c2ccc(C(C)(C)C)c(OC)c2)[C@H]1c1nccs1` (racemic) [Example 3, rel-(2R,4S,5R)-1-(3-Methoxy-4-tert-butylbenzoyl)-4-(methoxymethyl)-5-(1,3-thiazol-2-yl)-2-(1,3-thiazol-4-ylmethyl)pyrrolidine-2-carboxylic acid] was tested, and the IC50 was under 0.2 µM.
